Measurements published in patent US10662138B2, “Herbicidal propynyl-phenyl compounds” (Syngenta Participations AG, priority 2014, dated 2020).

Columns and labels:
Type in all cases: in vivo
Echinochloa crus-galli = assay: Glasshouse assay for herbicidal activity, post-emergence, ECHCG; conditions: Echinochloa crus-galli, 312 h, 250 g/ha, visual 13 days after application, 100%=total damage, read-out: Percentage phytotoxicity ECHCG
Protocol: (§1) Seeds of a variety of test plant species were sown in standard soil ** in pots. After cultivation for one day (pre-emergence) or after 8 days cultivation (post-emergence) under controlled conditions in a glasshouse (at 24/16° C., day/night; 14 hours light; 65% humidity), the plants were sprayed with an aqueous spray solution derived from the formulation of the technical active ingredient (the test herbicide) in acetone/water (50:50) solution containing 0.5% Tween 20 (polyoxyethylene sorbitan monolaurate, CAS Reg. No. 9005-64-5). The test plants were then grown on under controlled conditions in a glasshouse (at 24/16° C., day/night; 14 hours light; 65% humidity) and watered twice daily. 13 Days after application of the test herbicide, for pre- and post-emergence, the test was evaluated visually for percentage phytotoxicity to each plant (where 100%=total damage to plant; 0%=no damage to plant). Generally, each test herbicide is only tested on 1 plant per plant species for each application rate tested and for each application timing. The “standard soil” in Biological Example 1 is usually a “sand” or “sandy loam” type of soil. Biological Example 1—Post-Emergence Application—Herbicidal Activity Results (Percentage Phytotoxicity) Dicotyledonous weeds: ABUTH=Abutilon theophrasti; AMARE=Amaranthus retroflexus. Grassy monocotyledonous weeds: SETFA=Setaria faberi; ALOMY=Alopecurus myosuroides; ECHCG=Echinochloa crus-galli; ZEAMX=Zea mays (corn, maize, e.g. volunteer corn).

[1] = tested on: Zea mays (corn, maize, e.g. volunteer corn); assay: Glasshouse assay for herbicidal activity, post-emergence, ZEAMX; conditions: Zea mays, 312 h, 250 g/ha, visual 13 days after application, 100%=total damage, read-out: Percentage phytotoxicity ZEAMX
Protocol: as §1

Alopecurus myosuroides = assay: Glasshouse assay for herbicidal activity, post-emergence, ALOMY; conditions: Alopecurus myosuroides, 312 h, 250 g/ha, visual 13 days after application, 100%=total damage, read-out: Percentage phytotoxicity ALOMY
Protocol: as §1

Abutilon theophrasti = assay: Glasshouse assay for herbicidal activity, post-emergence, ABUTH; conditions: Abutilon theophrasti, 312 h, 250 g/ha, visual 13 days after application, 100%=total damage, read-out: Percentage phytotoxicity ABUTH
Protocol: as §1

Amaranthus retroflexus = assay: Glasshouse assay for herbicidal activity, post-emergence, AMARE; conditions: Amaranthus retroflexus, 312 h, 250 g/ha, visual 13 days after application, 100%=total damage, read-out: Percentage phytotoxicity AMARE
Protocol: as §1

Setaria faberi = assay: Glasshouse assay for herbicidal activity, post-emergence, SETFA; conditions: Setaria faberi, 312 h, 250 g/ha, visual 13 days after application, 100%=total damage, read-out: Percentage phytotoxicity SETFA
Protocol: as §1

| SMILES | pest or weed control at 250 g/ha (Echinochloa crus-galli) | pest or weed control at 250 g/ha [1] | pest or weed control at 250 g/ha (Alopecurus myosuroides) | pest or weed control at 250 g/ha (Abutilon theophrasti) | pest or weed control at 250 g/ha (Amaranthus retroflexus) | pest or weed control at 250 g/ha (Setaria faberi) |
| --- | --- | --- | --- | --- | --- | --- |
| CC#Cc1ccc(C2=C(OC(C)=O)C3CCC(C3)C2=O)c(OC)c1 (stereo not drawn) [Compound P1, [3-(2-methoxy-4-prop-1-ynyl-phenyl)-4-oxo-2-bicyclo[3.2.1]oct-2-enyl] acetate] | 100% | 100% | 100% | 10% | 20% | 90% |
| C#CCOC1=C(c2ccc(C#CC)cc2OC)C(=O)C2CCC1C2 (stereo not drawn) [Compound P2, 3-(2-methoxy-4-prop-1-ynyl-phenyl)-2-prop-2-ynoxy-bicyclo[3.2.1]oct-2-en-4-one] | 90% | 100% | 70% | 0% | 0% | 80% |
| C=CCOC1=C(c2ccc(C#CC)cc2OC)C(=O)C2CCC1C2 (stereo not drawn) [Compound P3] | 100% | 100% | 70% | 0% | 10% | 90% |
| CC#Cc1ccc(C2=C(OCOC)C3CCC(C3)C2=O)c(OC)c1 (stereo not drawn) [Compound P4] | 100% | 100% | 100% | 10% | 0% | 100% |
| CC#Cc1ccc(C2=C(OC(=O)c3ccc(F)cc3)C3CCC(C3)C2=O)c(OC)c1 (stereo not drawn) [Compound P5] | 100% | 100% | 90% | 50% | 30% | 90% |
| CC#Cc1ccc(C2=C(OC(=O)CC)C3CCC(C3)C2=O)c(OC)c1 (stereo not drawn) [Compound P6] | 100% | 100% | 90% | 60% | 40% | 90% |
| CC#Cc1ccc(C2=C(OC(=O)OC)C3CCC(C3)C2=O)c(OC)c1 (stereo not drawn) [Compound P7] | 100% | 100% | 90% | 40% | 30% | 90% |
| CC#Cc1ccc(C2=C(OC(=O)OCC)C3CCC(C3)C2=O)c(OC)c1 (stereo not drawn) [Compound P8] | 100% | 100% | 90% | 60% | 20% | 90% |
| CC#Cc1ccc(C2=C(OC(=O)C(C)C)C3CCC(C3)C2=O)c(OC)c1 (stereo not drawn) [Compound P10] | 100% | 100% | 90% | 70% | 40% | 90% |
| CC#Cc1ccc(C2=C(OC(=O)C(C)(C)C)C3CCC(C3)C2=O)c(OC)c1 (stereo not drawn) [Compound P11] | 100% | 100% | 90% | 70% | 20% | 100% |
| CC#Cc1ccc(C2=C(OC(=O)c3ccccc3)C3CCC(C3)C2=O)c(OC)c1 (stereo not drawn) [Compound P12] | 100% | 100% | 100% | 70% | 20% | 90% |
| CC#Cc1ccc(C2=C(OC(=O)Sc3ccccc3)C3CCC(C3)C2=O)c(OC)c1 (stereo not drawn) [Compound P13] | 100% | 100% | 90% | 40% | 60% | 100% |
| CC#Cc1ccc(C2=C(OC(=O)SCC)C3CCC(C3)C2=O)c(OC)c1 (stereo not drawn) [Compound P14] | 100% | 100% | 90% | 70% | 20% | 100% |
| CC#Cc1ccc(C2=C(OC(=O)SC(C)C)C3CCC(C3)C2=O)c(OC)c1 (stereo not drawn) [Compound P15] | 100% | 100% | 90% | 70% | 10% | 100% |
| CC#Cc1ccc(C2=C(OS(C)(=O)=O)C3CCC(C3)C2=O)c(OC)c1 (stereo not drawn) [Compound P16] | 90% | 100% | 80% | 40% | 40% | 70% |
| CC#Cc1ccc(C2=C(OS(=O)(=O)CC)C3CCC(C3)C2=O)c(OC)c1 (stereo not drawn) [Compound P17] | 90% | 100% | 90% | 70% | 0% | 80% |
| C=CC(=O)OC1=C(c2ccc(C#CC)cc2OC)C(=O)C2CCC1C2 (stereo not drawn) [Compound P18] | 100% | 100% | 90% | 70% | 30% | 90% |
